# Assays:
# [1] = tested on: Geotricum candidum (RCMB 05007); experiment: Agar well diffusion, Geotricum candidum; type: cell-based; details: Reference Drug, 30 μg/mL; well diameter 6 mm; 37° C., 18 to 24 h
# Experimental: (§1) Antimicrobial tests were carried out by agar well diffusion according to the National Committee for Clinical Laboratory Standards (NCCLS) criteria.
# (§2) Bacterial and fungal suspensions were prepared at 0.5 McFarland standard turbulence in a volume of 100 μL and were cultivated on Mueller-Hinton agar and Sabouraud dextrose media punched with 6-mm diameter wells for the bacteria and fungi, respectively. Then, 100 μl of 10% tested sample was added to the wells, while 10% DMSO was used as the negative control. Ampicillin, gentamicin, and amphotericin B (30 μg/mL) were used as standard agents against the Gram-positive bacteria, Gram-negative bacteria, and fungi, respectively. After incubation of the plates at 37° C. for 18 to 24 h, the antimicrobial activity was evaluated by measuring the diameter of the inhibition zones. Each test was performed in triplicate and the average of the results was calculated. The extraction solvents were used as negative controls (NCCLS, 2002; 2004).
# [2] = tested on: Absidia corymbifera (RCMB 02564); experiment: Agar well diffusion, Absidia corymbifera; type: cell-based; details: Reference Drug, 30 μg/mL; well diameter 6 mm; 37° C., 18 to 24 h
# Experimental: as §1, §2
# Candida albicans (RCMB) = experiment: Agar well diffusion, Candida albicans; type: cell-based; details: Reference Drug, 30 μg/mL; well diameter 6 mm; 37° C., 18 to 24 h
# Experimental: as §1, §2
# [3] = tested on: Staphylococcus aureus (RCMB 010027); experiment: Agar well diffusion, Staphylococcus aureus; type: cell-based; details: Reference Drug, 30 μg/mL; well diameter 6 mm; 37° C., 18 to 24 h; in mm
# Experimental: (§3) Antimicrobial tests were carried out by agar well diffusion according to the National Committee for Clinical Laboratory Standards (NCCLS) criteria. […] Then, 100 μl of 10% tested sample was added to the wells, while 10% DMSO was used as the negative control. […] Each test was performed in triplicate and the average of the results was calculated. The extraction solvents were used as negative controls (NCCLS, 2002; 2004).
# [4] = tested on: Staphylococcus epidermidis (RCMB 010024); experiment: Agar well diffusion, Staphylococcus epidermidis; type: cell-based; details: Reference Drug, 30 μg/mL; well diameter 6 mm; 37° C., 18 to 24 h; in mm
# Experimental: as §3
# [5] = tested on: Streptococcus pyogenes (RCMB 010015); experiment: Agar well diffusion, Streptococcus pyogenes; type: cell-based; details: Reference Drug, 30 μg/mL; well diameter 6 mm; 37° C., 18 to 24 h; in mm
# Experimental: as §3
# [6] = tested on: MDA (breast cancer cells); details: reported by Al-Massarani et al., Molecules 2017; cited from earlier work
# A549 cells = details: reported by Al-Massarani et al., Molecules 2017; cited from earlier work
# Hela cells = details: reported by Al-Massarani et al., Molecules 2017; cited from earlier work
# [7] = tested on: Klebsiella pneumoniae (RCMB 0010093); experiment: Agar well diffusion, Klebsiella pneumoniae; type: cell-based; details: Reference Drug, 30 μg/mL; well diameter 6 mm; 37° C., 18 to 24 h; in mm
# Experimental: as §3
# [8] = tested on: Salmonella enteritidis (RCMB 010084); experiment: Agar well diffusion, Salmonella enteritidis; type: cell-based; details: Reference Drug, 30 μg/mL; well diameter 6 mm; 37° C., 18 to 24 h; in mm
# Experimental: as §3
# [9] = tested on: Proteous vulgaris (RCMB 010085); experiment: Agar well diffusion, Proteous vulgaris; type: cell-based; details: Reference Drug, 30 μg/mL; well diameter 6 mm; 37° C., 18 to 24 h; in mm
# Experimental: as §3
compound,measurement,setting,value
C[C@@H]1[C@H](O)[C@@H](C)/C=C/C=C/C=C/C=C/C=C/C=C/C=C/[C@H](O[C@@H]2O[C@H](C)[C@@H](O)[C@H](N)[C@@H]2O)C[C@@H]2O[C@](O)(C[C@@H](O)C[C@@H](O)[C@H](O)CC[C@@H](O)C[C@@H](O)CC(=O)O[C@H]1C)C[C@H](O)[C@H]2C(=O)O [Amphotericin B],Zone of Inhibition,[1],27.0
same,Zone of Inhibition,[2],23.0
same,Zone of Inhibition,Candida albicans (RCMB),25.7
CC1(C)S[C@@H]2[C@H](NC(=O)[C@H](N)c3ccccc3)C(=O)N2[C@H]1C(=O)O [Ampicillin],Zone of Inhibition,[3],27.3
same,Zone of Inhibition,[4],25.0
same,Zone of Inhibition,[5],26.3
C[C@H]1[C@H](C)CC[C@]2(C(=O)O)CC[C@]3(C)C(=CC[C@@H]4[C@@]5(C)CC[C@H](O)C(C)(C)[C@@H]5CC[C@]43C)[C@H]12 [ursolic acid],IC50,[6],47.76 mg/L
same,IC50,A549 cells,65.2 mg/L
same,IC50,Hela cells,50.2 mg/L
Gentamycin,Zone of Inhibition,[7],26.4
same,Zone of Inhibition,[8],25.2
same,Zone of Inhibition,[9],23.4

# From US10442833B1 (KING SAUD UNIVERSITY, priority 2018, dated 2019)
